Columns and labels:
Test in all cases: biochemical
Type in all cases: biochemical
382 unique human kinases [1] = molecular target: T1, 382 unique human kinases (Homo sapiens, UniProt O00418); conditions: kinase EEF2K, compound 10 uM; for remaining activity at 10 µM: read-out: % Enzyme Activity (relative to DMSO controls)
T1 construct: purchased Reaction Biology (HotSpot contract assay)
T1 sequence (O00418 1-725): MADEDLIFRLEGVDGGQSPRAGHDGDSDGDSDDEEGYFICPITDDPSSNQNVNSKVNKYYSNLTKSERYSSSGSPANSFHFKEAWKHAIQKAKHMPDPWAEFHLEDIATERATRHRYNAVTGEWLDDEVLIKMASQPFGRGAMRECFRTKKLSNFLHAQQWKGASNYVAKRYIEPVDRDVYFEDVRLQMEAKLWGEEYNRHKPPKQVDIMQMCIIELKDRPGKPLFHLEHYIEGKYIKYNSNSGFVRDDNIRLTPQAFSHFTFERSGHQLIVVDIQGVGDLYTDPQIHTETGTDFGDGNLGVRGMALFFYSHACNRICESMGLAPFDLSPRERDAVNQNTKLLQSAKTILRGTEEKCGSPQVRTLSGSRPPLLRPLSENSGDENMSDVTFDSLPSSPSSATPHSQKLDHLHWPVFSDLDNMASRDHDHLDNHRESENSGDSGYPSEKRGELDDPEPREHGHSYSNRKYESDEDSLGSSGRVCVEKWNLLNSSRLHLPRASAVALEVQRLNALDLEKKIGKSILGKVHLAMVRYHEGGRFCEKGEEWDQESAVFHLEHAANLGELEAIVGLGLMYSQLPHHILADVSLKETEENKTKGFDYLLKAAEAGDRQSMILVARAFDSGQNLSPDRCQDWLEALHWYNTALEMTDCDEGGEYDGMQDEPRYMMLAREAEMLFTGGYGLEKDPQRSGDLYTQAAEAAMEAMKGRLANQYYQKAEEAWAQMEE

382 unique human kinases [2] = molecular target: T2, 382 unique human kinases (Homo sapiens, UniProt Q96GD4); conditions: kinase Aurora B, compound 10 uM; for remaining activity at 10 µM: read-out: % Enzyme Activity (relative to DMSO controls)
T2 construct: purchased Reaction Biology (HotSpot contract assay)

382 unique human kinases [3] = molecular target: T3, 382 unique human kinases (Homo sapiens, UniProt Q9H2G2); conditions: SLK/STK2, 10 uM; for remaining activity at 10 µM: read-out: % Enzyme Activity (relative to DMSO controls)
T3 construct: purchased Reaction Biology (HotSpot contract assay)

382 unique human kinases [4] = molecular target: T4, 382 unique human kinases (Homo sapiens, UniProt Q15569); conditions: TESK1, compound at 10 uM, duplicate values; for remaining activity at 10 µM: read-out: % Enzyme Activity (relative to DMSO controls)
T4 construct: purchased Reaction Biology (HotSpot contract assay)

382 unique human kinases [5] = molecular target: T5, 382 unique human kinases (Homo sapiens, UniProt P00533, A750P/DEL747-749); conditions: EGFR (d747-749/A750P), 10 uM; for remaining activity at 10 µM: read-out: % Enzyme Activity (relative to DMSO controls)
T5 construct: purchased Reaction Biology (HotSpot contract assay)

382 unique human kinases [6] = molecular target: T6, 382 unique human kinases (Homo sapiens, UniProt Q15208); conditions: STK38/NDR1, 10 uM; for remaining activity at 10 µM: read-out: % Enzyme Activity (relative to DMSO controls)
T6 construct: purchased Reaction Biology (HotSpot contract assay)

382 unique human kinases [7] = molecular target: T7, 382 unique human kinases (Homo sapiens, UniProt P12931); conditions: c-Src, [ATP] 15 µM
T7 construct: purchased Reaction Biology (HotSpot contract assay)

382 unique human kinases [8] = molecular target: T8, 382 unique human kinases (Homo sapiens, UniProt P00519, Y253F); conditions: ABL1 (Y253F), [ATP] 15 µM, compound 10 uM; for remaining activity at 10 µM: read-out: % Enzyme Activity (relative to DMSO controls)
T8 construct: purchased Reaction Biology (HotSpot contract assay)

382 unique human kinases [9] = molecular target: T9, 382 unique human kinases (Homo sapiens, UniProt O15075); conditions: DCAMKL1, 10 uM; for remaining activity at 10 µM: read-out: % Enzyme Activity (relative to DMSO controls)
T9 construct: purchased Reaction Biology (HotSpot contract assay)

382 unique human kinases [10] = molecular target: T10, 382 unique human kinases (Homo sapiens, UniProt O15530); conditions: PDK1/PDPK1, 10 uM; for remaining activity at 10 µM: read-out: % Enzyme Activity (relative to DMSO controls)
T10 construct: purchased Reaction Biology (HotSpot contract assay)
T10 sequence (O15530 1-556): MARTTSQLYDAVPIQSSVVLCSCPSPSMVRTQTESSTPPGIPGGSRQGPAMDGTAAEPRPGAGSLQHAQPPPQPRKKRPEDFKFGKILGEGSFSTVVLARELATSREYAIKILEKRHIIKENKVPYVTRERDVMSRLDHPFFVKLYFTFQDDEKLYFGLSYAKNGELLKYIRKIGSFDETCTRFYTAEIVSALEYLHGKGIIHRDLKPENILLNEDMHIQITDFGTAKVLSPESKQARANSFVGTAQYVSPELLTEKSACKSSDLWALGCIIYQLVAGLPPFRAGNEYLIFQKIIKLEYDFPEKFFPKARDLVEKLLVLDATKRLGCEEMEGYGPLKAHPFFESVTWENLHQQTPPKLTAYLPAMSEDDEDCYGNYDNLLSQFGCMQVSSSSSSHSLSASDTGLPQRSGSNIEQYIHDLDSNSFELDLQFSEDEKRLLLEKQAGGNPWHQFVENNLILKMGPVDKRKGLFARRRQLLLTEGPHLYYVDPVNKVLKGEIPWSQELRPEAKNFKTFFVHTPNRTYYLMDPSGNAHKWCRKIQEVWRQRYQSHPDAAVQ

382 unique human kinases [11] = molecular target: T11, 382 unique human kinases (Homo sapiens, UniProt P10721, Y823D); conditions: c-Kit (Y823D), [ATP] 100 µM, compound 10 uM; for remaining activity at 10 µM: read-out: % Enzyme Activity (relative to DMSO controls)
T11 construct: purchased Reaction Biology (HotSpot contract assay)

382 unique human kinases [12] = molecular target: T12, 382 unique human kinases (Homo sapiens, UniProt Q16644); conditions: MAPKAPK3, 10 uM; for remaining activity at 10 µM: read-out: % Enzyme Activity (relative to DMSO controls)
T12 construct: purchased Reaction Biology (HotSpot contract assay)

382 unique human kinases [13] = molecular target: T13, 382 unique human kinases (Homo sapiens, UniProt P34947); conditions: GRK5, 10 uM; for remaining activity at 10 µM: read-out: % Enzyme Activity (relative to DMSO controls)
T13 construct: purchased Reaction Biology (HotSpot contract assay)

382 unique human kinases [14] = molecular target: T14, 382 unique human kinases (Homo sapiens, UniProt P17612); conditions: PKA, 10 uM; for remaining activity at 10 µM: read-out: % Enzyme Activity (relative to DMSO controls)
T14 construct: purchased Reaction Biology (HotSpot contract assay)

[15] = compound 10 uM, read-out: % Enzyme Activity (relative to DMSO controls)

T13 sequence (P34947 whole entry): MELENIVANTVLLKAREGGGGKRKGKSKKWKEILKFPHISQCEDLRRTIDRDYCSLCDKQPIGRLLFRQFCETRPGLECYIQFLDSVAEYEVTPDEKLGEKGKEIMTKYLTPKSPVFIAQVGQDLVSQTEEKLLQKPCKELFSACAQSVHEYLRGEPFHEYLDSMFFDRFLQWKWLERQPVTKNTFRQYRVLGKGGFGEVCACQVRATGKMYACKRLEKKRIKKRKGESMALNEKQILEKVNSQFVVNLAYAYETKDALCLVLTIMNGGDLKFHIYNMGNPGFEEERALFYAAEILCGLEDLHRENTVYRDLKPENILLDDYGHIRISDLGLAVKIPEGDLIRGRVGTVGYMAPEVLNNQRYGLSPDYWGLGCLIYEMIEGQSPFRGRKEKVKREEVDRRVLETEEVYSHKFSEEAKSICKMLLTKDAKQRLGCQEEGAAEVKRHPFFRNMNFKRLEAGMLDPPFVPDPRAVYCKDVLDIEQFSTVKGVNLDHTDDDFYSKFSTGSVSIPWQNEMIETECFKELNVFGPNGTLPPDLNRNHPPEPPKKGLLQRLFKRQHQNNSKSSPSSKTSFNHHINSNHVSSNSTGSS
T11 sequence (P10721 26-976 Y823D): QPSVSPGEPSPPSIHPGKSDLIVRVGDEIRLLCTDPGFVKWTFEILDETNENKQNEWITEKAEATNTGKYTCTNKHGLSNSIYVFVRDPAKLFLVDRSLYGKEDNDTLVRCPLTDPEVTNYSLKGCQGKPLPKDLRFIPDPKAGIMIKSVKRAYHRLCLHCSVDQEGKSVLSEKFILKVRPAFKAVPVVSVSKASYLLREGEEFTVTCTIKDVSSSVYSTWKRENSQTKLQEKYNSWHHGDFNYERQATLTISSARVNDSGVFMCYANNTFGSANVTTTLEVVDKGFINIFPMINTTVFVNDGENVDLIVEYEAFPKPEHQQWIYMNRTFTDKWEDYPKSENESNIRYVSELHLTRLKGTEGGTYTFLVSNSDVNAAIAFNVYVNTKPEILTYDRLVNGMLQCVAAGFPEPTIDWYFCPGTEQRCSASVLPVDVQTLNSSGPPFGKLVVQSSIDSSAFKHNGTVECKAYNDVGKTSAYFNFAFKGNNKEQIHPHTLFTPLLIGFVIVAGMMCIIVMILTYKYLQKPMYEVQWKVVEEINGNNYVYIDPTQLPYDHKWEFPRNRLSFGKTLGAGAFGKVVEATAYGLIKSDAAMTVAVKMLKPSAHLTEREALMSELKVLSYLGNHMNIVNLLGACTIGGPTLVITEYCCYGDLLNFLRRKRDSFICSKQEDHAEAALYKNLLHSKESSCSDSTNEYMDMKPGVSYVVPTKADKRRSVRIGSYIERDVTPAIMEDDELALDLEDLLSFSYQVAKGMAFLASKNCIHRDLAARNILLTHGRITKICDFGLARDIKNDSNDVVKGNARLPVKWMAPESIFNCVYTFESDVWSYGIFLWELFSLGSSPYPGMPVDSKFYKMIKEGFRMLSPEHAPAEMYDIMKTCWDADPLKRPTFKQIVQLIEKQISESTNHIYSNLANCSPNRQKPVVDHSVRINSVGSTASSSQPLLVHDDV
T9 sequence (O15075 whole entry): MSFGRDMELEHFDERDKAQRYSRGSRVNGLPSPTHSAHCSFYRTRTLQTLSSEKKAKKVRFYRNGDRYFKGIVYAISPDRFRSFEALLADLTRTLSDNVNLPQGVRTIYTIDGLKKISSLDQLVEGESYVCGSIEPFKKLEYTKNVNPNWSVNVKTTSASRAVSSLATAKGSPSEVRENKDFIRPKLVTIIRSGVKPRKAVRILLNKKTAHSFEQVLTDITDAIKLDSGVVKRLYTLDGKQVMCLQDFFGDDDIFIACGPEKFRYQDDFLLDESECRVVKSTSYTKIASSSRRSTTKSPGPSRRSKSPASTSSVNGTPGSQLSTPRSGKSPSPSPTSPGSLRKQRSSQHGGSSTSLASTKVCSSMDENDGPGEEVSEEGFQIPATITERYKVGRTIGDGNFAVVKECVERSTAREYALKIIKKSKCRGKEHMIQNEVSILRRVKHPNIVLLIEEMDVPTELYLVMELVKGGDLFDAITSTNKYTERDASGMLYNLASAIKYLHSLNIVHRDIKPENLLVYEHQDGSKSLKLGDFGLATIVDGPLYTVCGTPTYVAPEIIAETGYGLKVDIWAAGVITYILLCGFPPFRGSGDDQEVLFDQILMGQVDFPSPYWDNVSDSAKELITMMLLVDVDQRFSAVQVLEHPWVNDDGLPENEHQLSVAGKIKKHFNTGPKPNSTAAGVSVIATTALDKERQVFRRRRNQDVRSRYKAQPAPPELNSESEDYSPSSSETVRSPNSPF
T2 sequence (Q96GD4 whole entry): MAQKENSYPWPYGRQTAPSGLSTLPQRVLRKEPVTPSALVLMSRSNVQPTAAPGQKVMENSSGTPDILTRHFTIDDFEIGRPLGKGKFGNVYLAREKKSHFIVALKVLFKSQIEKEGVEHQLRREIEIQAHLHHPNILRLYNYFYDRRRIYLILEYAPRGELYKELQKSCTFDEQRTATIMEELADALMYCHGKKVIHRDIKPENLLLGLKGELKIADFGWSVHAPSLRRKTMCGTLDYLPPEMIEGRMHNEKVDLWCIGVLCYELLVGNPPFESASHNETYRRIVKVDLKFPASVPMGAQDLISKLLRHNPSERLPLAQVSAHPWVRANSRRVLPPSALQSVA
T12 sequence (Q16644 whole entry): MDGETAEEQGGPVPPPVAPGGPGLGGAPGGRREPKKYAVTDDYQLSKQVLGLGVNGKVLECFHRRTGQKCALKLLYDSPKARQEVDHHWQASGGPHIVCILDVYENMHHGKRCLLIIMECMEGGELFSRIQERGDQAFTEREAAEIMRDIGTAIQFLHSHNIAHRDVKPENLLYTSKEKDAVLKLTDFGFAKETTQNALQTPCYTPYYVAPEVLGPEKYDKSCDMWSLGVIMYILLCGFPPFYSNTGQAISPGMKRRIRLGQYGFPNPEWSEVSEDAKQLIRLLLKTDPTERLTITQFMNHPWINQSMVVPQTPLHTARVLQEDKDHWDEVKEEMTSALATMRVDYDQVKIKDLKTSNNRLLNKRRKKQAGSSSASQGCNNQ
T7 sequence (P12931 whole entry): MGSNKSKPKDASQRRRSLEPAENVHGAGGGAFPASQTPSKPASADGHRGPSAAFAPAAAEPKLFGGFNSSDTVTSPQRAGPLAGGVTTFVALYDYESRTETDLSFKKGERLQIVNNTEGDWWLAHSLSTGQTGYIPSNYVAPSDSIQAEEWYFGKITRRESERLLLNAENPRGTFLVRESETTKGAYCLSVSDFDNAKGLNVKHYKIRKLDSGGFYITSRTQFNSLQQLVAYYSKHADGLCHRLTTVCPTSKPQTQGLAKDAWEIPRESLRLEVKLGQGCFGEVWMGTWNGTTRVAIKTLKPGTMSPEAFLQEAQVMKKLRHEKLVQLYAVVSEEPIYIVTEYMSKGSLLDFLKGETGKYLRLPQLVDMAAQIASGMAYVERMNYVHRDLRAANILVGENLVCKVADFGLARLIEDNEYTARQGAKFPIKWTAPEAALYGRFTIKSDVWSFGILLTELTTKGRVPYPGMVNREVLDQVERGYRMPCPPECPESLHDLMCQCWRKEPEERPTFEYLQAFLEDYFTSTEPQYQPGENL
T4 sequence (Q15569 whole entry): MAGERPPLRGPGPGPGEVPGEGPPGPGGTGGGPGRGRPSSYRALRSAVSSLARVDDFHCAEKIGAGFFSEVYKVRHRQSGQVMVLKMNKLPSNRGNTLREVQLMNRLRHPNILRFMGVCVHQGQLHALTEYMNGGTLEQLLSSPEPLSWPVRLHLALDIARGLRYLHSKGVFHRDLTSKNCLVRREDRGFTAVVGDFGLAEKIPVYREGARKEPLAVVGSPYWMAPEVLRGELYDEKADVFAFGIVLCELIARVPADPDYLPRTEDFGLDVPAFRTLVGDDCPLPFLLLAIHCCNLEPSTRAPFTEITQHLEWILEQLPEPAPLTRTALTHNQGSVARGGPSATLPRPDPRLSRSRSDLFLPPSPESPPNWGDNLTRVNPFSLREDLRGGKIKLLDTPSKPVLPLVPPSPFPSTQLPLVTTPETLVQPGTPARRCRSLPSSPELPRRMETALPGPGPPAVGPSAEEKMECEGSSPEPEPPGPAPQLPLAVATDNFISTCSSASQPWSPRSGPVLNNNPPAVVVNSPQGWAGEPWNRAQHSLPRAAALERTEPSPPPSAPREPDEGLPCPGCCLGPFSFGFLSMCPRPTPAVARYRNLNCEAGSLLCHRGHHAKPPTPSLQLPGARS
T6 sequence (Q15208 whole entry): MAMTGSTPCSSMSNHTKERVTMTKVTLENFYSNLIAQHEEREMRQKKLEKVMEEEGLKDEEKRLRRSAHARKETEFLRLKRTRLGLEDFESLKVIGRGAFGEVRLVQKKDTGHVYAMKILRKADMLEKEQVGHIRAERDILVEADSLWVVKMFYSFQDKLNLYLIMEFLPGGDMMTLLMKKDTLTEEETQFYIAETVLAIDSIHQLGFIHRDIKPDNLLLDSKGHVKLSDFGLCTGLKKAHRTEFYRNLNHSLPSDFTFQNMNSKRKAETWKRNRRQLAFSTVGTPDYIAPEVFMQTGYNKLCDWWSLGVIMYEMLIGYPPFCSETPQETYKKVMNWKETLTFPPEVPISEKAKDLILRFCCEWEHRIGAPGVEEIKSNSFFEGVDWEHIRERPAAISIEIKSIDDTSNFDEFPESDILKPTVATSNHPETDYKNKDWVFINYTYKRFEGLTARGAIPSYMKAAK

## CC(C)c1cc(-c2n[nH]c(=O)n2-c2ccc3c(ccn3C)c2)c(O)cc1O [Ganetespib (STA9090)]
382 unique human kinases [1]
  remaining activity at 10 µM: 89.2%
382 unique human kinases [2]
  remaining activity at 10 µM: 83.6%
382 unique human kinases [3]
  remaining activity at 10 µM: 79.5%
382 unique human kinases [4]
  remaining activity at 10 µM: 101%
382 unique human kinases [5]
  remaining activity at 10 µM: 67.9%

## CC(C)c1cc(-c2n[nH]c(=O)n2-c2ccc3c(ccn3C)c2)c(O)cc1O [Ganetespib]
382 unique human kinases [6]
  remaining activity at 10 µM: 95.7%
382 unique human kinases [7]; compound 1 uM, read-out: % Enzyme Activity (relative to DMSO controls)
  remaining activity at 1 µM: 38.8%
382 unique human kinases [7]; [15]
  remaining activity at 10 µM: 9.14%
382 unique human kinases [8]
  remaining activity at 10 µM: 3.72%
382 unique human kinases [9]
  remaining activity at 10 µM: 113%
382 unique human kinases [10]
  remaining activity at 10 µM: 99.4%
382 unique human kinases [11]
  remaining activity at 10 µM: 49.7%
382 unique human kinases [12]
  remaining activity at 10 µM: 97.3%
382 unique human kinases [13]
  remaining activity at 10 µM: 96%
382 unique human kinases [14]
  remaining activity at 10 µM: 91%

## CCNC(=O)c1noc(-c2cc(C(C)C)c(O)cc2O)c1-c1ccc(CN2CCOCC2)cc1 [Luminespib (AUY-922)]
382 unique human kinases [1]
  % Enzyme Activity (relative to DMSO controls): 102.88%
  remaining activity at 10 µM: 105%
382 unique human kinases [2]
  % Enzyme Activity (relative to DMSO controls): 100.09%
  remaining activity at 10 µM: 104%
382 unique human kinases [3]
  % Enzyme Activity (relative to DMSO controls): 89.63%
  remaining activity at 10 µM: 90.2%
382 unique human kinases [4]
  % Enzyme Activity (relative to DMSO controls): 104.01%
  remaining activity at 10 µM: 104%
382 unique human kinases [5]
  % Enzyme Activity (relative to DMSO controls): 98.51%
  remaining activity at 10 µM: 102%

## CCNC(=O)c1noc(-c2cc(C(C)C)c(O)cc2O)c1-c1ccc(CN2CCOCC2)cc1 [Luminespib]
382 unique human kinases [6]
  % Enzyme Activity (relative to DMSO controls): 98.10%
  remaining activity at 10 µM: 99%
382 unique human kinases [7]; compound 10 uM
  % Enzyme Activity (relative to DMSO controls): 33.43%
382 unique human kinases [7]; [15]
  remaining activity at 10 µM: 36.4%
382 unique human kinases [8]
  % Enzyme Activity (relative to DMSO controls): 4.48%
  remaining activity at 10 µM: 5.44%
382 unique human kinases [9]
  % Enzyme Activity (relative to DMSO controls): 95.95%
  remaining activity at 10 µM: 96.9%
382 unique human kinases [10]
  % Enzyme Activity (relative to DMSO controls): 101.64%
  remaining activity at 10 µM: 102%
382 unique human kinases [11]
  % Enzyme Activity (relative to DMSO controls): 59.05%
  remaining activity at 10 µM: 60.2%
382 unique human kinases [12]
  % Enzyme Activity (relative to DMSO controls): 103.47%
  remaining activity at 10 µM: 105%
382 unique human kinases [13]
  % Enzyme Activity (relative to DMSO controls): 101.05%
  remaining activity at 10 µM: 102%
382 unique human kinases [14]
  % Enzyme Activity (relative to DMSO controls): 108.65%
  remaining activity at 10 µM: 111%
